Test results: patent US10844077B2, “Thiazolyl-containing compounds for treating proliferative diseases” (Dana-Farber Cancer Institute, Inc., priority 2014, dated 2020)
Several values for one entry are separate records, joined by “and”; a condition that tells them apart may be missing. Identical values can stand only once.

Legend:
Assay in all cases: KINATIV assay
Assay type in all cases: cell-based
GSK3B = GSK3B (Homo sapiens (Human), UniProt P49841); details: GSK3B; 1 μM, 90 minutes, BCWM.1 cells
Outline: (§1)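 Readout is ACTIVX identification and quantitation of kinases captured by an ATP-biotin probe. Lysates from harvested cells were labeled directly with the probe, and each compound was tested in duplicate alongside duplicate or quadruplicate control samples.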

MLKL = MLKL (Homo sapiens (Human), UniProt Q8NB16); details: 1 μM, 90 minutes, BCWM.1 cells
Outline: as §1

CK2a2 = CK2a2 (Homo sapiens (Human), UniProt P19784); details: 1 μM, 90 minutes, BCWM.1 cells
Outline: as §1

IKKe, TBK1 = details: 1 μM, 90 minutes, BCWM.1 cells
Outline: as §1

FES = FES (Homo sapiens (Human), UniProt P07332); details: 1 μM, 90 minutes, BCWM.1 cells
Outline: as §1

STLK5 = STLK5 (Homo sapiens (Human), UniProt Q7RTN6); details: 1 μM, 90 minutes, BCWM.1 cells
Chain of STLK5 (Q7RTN6 whole entry): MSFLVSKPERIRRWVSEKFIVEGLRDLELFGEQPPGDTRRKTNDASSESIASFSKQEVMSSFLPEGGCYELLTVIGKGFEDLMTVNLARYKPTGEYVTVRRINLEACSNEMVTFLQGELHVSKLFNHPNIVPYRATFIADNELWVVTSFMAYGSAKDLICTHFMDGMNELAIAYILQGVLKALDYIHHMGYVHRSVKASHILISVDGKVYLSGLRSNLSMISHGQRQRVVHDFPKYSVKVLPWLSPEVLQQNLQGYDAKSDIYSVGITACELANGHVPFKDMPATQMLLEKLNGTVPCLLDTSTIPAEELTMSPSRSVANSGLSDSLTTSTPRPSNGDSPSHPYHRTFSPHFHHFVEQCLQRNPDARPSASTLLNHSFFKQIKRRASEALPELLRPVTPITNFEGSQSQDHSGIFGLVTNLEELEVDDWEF
Outline: as §1

VRK2 = VRK2 (Homo sapiens (Human), UniProt Q86Y07); details: 1 μM, 90 minutes, BCWM.1 cells
Outline: as §1

PKD2 = PKD2 (Homo sapiens (Human), UniProt Q9BZL6); details: 1 μM, 90 minutes, BCWM.1 cells
Outline: as §1

Erk2 = Erk2 (Homo sapiens (Human), UniProt P28482); details: 1 μM, 90 minutes, BCWM.1 cells
Outline: as §1

LCK = LCK (Homo sapiens (Human), UniProt P06239); details: 1 μM, 90 minutes, BCWM.1 cells
Chain of LCK (P06239 whole entry): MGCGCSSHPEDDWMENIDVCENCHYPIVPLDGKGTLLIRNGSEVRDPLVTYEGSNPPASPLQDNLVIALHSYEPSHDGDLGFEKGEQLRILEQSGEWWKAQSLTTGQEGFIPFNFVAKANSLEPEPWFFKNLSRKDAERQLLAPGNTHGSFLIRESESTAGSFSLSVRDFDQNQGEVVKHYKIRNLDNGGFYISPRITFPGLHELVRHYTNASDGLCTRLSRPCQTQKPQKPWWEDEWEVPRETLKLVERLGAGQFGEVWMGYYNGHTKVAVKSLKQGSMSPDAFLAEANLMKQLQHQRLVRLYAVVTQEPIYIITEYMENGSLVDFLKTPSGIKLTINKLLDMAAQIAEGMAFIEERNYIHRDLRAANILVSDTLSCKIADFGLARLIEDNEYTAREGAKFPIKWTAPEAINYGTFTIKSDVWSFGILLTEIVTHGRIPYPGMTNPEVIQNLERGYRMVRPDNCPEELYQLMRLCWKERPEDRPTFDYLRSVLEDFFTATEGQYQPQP
Outline: as §1

Erk1 = Erk1 (Homo sapiens (Human), UniProt P27361); details: 1 μM, 90 minutes, BCWM.1 cells
Outline: as §1

RSK1 domain2 = RSK1 domain2 (Homo sapiens (Human), UniProt Q15418); details: 1 μM, 90 minutes, BCWM.1 cells
Outline: as §1

PIP4K2C = PIP4K2C (Homo sapiens (Human), UniProt Q8TBX8); details: 1 μM, 90 minutes, BCWM.1 cells
Chain of PIP4K2C (Q8TBX8 whole entry): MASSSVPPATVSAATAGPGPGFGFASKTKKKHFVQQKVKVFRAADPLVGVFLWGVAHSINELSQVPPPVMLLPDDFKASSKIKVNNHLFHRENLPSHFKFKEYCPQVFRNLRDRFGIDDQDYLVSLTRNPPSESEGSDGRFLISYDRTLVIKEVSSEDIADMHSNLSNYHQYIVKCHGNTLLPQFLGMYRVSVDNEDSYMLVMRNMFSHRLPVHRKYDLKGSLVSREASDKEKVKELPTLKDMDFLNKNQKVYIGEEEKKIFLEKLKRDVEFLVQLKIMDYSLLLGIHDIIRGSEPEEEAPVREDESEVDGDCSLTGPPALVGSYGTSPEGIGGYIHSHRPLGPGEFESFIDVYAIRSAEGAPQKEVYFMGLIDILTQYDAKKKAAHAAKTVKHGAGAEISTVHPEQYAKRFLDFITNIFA
Outline: as §1

CaMK2d = CaMK2d (Homo sapiens (Human), UniProt Q13557); details: 1 μM, 90 minutes, BCWM.1 cells
Outline: as §1

NEK2 = NEK2 (Homo sapiens (Human), UniProt P51955); details: 1 μM, 90 minutes, BCWM.1 cells
Outline: as §1

RSK2 domain2 = RSK2 domain2 (Homo sapiens (Human), UniProt P51812); details: 1 μM, 90 minutes, BCWM.1 cells
Outline: as §1

MAP3K1 = MAP3K1 (Homo sapiens (Human), UniProt Q13233); details: 1 μM, 90 minutes, BCWM.1 cells
Outline: as §1

ROCK1 = ROCK1 (Homo sapiens (Human), UniProt Q13464); details: 1 μM, 90 minutes, BCWM.1 cells
Outline: as §1

ATR = ATR (Homo sapiens (Human), UniProt Q13535); details: 1 μM, 90 minutes, BCWM.1 cells
Outline: as §1

AMPKa1, AMPKa2 = details: 1 μM, 90 minutes, BCWM.1 cells
Outline: as §1

CaMK1d = CaMK1d (Homo sapiens (Human), UniProt Q8IU85); details: 1 μM, 90 minutes, BCWM.1 cells
Chain of CaMK1d (Q8IU85 whole entry): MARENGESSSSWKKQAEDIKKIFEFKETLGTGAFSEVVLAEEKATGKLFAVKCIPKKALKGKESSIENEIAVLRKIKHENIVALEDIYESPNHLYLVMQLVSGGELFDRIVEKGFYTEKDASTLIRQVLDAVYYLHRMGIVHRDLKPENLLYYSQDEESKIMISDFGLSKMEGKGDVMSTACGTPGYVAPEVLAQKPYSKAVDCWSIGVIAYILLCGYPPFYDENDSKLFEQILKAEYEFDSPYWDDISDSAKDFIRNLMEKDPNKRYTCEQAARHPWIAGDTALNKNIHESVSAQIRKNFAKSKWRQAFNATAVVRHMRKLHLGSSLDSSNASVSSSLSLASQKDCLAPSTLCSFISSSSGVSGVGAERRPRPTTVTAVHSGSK
Outline: as §1

PIK3CD = PIK3CD (Homo sapiens (Human), UniProt O00329); details: 1 μM, 90 minutes, BCWM.1 cells
Outline: as §1

PIK3CG = PIK3CG (Homo sapiens (Human), UniProt P48736); details: 1 μM, 90 minutes, BCWM.1 cells
Outline: as §1

NEK8 = NEK8 (Homo sapiens (Human), UniProt Q86SG6); details: 1 μM, 90 minutes, BCWM.1 cells
Outline: as §1

MARK3 = MARK3 (Homo sapiens (Human), UniProt P27448); details: 1 μM, 90 minutes, BCWM.1 cells
Outline: as §1

FGR = FGR (Homo sapiens (Human), UniProt P09769); details: 1 μM, 90 minutes, BCWM.1 cells
Outline: as §1

IKKe = IKKe (Homo sapiens (Human), UniProt Q14164); details: 1 μM, 90 minutes, BCWM.1 cells
Outline: as §1

CSK = CSK (Homo sapiens (Human), UniProt P41240); details: 1 μM, 90 minutes, BCWM.1 cells
Outline: as §1

RSK1, RSK2, RSK3 domain1 = details: 1 μM, 90 minutes, BCWM.1 cells
Outline: as §1

ULK1 = ULK1 (Homo sapiens (Human), UniProt O75385); details: 1 μM, 90 minutes, BCWM.1 cells
Outline: as §1

BARK1 = BARK1 (Homo sapiens (Human), UniProt P25098); details: 1 μM, 90 minutes, BCWM.1 cells
Outline: as §1

MST4 = MST4 (Homo sapiens (Human), UniProt Q9P289); details: 1 μM, 90 minutes, BCWM.1 cells
Outline: as §1

RSK3 domain1 = RSK3 domain1 (Homo sapiens (Human), UniProt Q15349); details: 1 μM, 90 minutes, BCWM.1 cells
Chain of RSK3 domain1 (Q15349 whole entry, the tested form may be a part): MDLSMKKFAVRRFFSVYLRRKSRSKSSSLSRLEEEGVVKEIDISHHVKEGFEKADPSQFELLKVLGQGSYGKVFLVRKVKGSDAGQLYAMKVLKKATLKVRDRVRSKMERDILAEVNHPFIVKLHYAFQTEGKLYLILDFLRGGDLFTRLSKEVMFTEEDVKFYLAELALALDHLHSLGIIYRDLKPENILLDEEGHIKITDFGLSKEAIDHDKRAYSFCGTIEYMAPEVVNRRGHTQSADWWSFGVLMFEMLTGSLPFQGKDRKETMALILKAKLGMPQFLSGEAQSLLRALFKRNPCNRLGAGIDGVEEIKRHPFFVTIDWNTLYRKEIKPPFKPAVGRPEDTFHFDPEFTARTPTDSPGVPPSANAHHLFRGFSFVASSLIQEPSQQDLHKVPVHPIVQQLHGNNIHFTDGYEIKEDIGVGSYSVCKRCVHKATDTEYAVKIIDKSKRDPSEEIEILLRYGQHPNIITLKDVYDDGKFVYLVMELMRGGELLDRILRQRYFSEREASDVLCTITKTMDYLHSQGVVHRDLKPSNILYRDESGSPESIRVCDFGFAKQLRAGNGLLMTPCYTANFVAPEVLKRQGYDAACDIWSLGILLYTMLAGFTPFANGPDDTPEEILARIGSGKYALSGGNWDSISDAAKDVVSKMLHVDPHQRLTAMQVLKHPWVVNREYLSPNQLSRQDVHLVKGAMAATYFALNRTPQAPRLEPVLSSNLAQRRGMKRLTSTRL
Outline: as §1

MST4, YSK1 = details: 1 μM, 90 minutes, BCWM.1 cells
Outline: as §1

MLK3 = MLK3 (Homo sapiens (Human), UniProt Q16584); details: 1 μM, 90 minutes, BCWM.1 cells
Chain of MLK3 (Q16584 whole entry): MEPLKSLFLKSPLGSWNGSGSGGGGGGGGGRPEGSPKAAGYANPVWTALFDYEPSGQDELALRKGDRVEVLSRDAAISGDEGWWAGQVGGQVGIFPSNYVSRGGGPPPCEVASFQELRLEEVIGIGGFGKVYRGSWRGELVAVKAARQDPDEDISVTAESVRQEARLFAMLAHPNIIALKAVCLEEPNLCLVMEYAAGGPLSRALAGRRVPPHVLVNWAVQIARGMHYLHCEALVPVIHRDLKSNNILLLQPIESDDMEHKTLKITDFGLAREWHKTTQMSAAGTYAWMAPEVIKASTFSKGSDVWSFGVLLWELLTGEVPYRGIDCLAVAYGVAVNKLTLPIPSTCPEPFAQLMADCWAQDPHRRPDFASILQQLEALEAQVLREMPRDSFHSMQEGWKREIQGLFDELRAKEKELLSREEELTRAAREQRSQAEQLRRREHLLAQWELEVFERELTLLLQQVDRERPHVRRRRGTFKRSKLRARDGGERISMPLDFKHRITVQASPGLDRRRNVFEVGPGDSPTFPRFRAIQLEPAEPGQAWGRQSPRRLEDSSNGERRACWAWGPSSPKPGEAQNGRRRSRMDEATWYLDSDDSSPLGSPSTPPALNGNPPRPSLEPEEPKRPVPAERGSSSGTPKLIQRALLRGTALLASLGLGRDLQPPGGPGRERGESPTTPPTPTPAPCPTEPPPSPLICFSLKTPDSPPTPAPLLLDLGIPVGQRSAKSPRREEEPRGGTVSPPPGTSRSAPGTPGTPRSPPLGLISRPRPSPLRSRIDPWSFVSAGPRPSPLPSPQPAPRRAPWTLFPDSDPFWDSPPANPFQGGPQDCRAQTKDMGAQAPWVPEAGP
Outline: as §1

PIP5K3 = PIP5K3 (Homo sapiens (Human), UniProt Q9Y2I7); details: 1 μM, 90 minutes, BCWM.1 cells
Outline: as §1

AurA, AurB, AurC = details: 1 μM, 90 minutes, BCWM.1 cells
Outline: as §1

GCN2 = GCN2 (Homo sapiens (Human), UniProt Q9P2K8); details: 1 μM, 90 minutes, BCWM.1 cells
Chain of GCN2 (Q9P2K8 whole entry): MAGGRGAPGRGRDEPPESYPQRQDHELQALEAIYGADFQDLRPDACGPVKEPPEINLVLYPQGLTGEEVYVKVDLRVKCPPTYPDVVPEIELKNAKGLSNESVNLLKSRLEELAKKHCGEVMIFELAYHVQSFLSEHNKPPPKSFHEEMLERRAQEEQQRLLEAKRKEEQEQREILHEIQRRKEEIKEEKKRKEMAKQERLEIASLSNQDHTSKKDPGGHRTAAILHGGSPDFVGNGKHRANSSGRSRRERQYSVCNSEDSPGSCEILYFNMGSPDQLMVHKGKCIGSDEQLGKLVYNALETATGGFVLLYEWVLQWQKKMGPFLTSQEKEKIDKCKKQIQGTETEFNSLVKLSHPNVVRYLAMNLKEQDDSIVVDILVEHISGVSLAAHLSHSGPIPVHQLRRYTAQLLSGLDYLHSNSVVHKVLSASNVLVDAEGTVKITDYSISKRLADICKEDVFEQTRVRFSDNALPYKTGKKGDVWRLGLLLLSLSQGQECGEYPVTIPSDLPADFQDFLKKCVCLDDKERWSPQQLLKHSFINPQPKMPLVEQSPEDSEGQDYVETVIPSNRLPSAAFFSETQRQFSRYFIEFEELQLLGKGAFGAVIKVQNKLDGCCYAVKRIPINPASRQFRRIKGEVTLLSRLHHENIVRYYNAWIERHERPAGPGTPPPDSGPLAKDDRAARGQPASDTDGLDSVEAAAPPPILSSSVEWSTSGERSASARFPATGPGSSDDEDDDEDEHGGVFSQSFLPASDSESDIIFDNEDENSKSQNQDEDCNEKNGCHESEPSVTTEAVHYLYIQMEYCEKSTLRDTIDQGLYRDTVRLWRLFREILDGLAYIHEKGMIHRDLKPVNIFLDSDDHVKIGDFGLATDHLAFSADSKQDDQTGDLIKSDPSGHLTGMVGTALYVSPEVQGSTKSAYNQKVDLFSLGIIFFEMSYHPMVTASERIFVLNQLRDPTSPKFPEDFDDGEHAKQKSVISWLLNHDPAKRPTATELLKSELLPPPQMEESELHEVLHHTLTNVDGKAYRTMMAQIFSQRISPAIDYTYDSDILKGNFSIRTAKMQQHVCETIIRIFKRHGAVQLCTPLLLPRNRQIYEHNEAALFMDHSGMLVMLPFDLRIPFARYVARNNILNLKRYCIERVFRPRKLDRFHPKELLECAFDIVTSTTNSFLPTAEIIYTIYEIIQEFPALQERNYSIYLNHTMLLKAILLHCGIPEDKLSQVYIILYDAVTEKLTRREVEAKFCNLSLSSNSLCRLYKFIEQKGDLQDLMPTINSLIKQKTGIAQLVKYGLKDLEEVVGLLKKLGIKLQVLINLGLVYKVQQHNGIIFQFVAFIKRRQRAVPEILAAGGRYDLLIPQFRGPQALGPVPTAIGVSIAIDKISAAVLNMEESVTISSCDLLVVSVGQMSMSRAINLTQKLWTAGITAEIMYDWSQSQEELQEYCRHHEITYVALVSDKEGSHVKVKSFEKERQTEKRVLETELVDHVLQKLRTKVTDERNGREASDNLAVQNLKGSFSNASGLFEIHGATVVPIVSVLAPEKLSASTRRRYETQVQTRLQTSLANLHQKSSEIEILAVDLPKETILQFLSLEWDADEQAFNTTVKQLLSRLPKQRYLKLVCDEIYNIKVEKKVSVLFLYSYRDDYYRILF
Outline: as §1

Wnk1, Wnk2, Wnk4 = details: 1 μM, 90 minutes, BCWM.1 cells
Outline: as §1

MAST3 = MAST3 (Homo sapiens (Human), UniProt O60307); details: 1 μM, 90 minutes, BCWM.1 cells
Outline: as §1

## C=CC(=O)N1CC[C@@H](Nc2nccc(Nc3ncc(C(=O)Nc4c(C)cccc4C)s3)n2)C1 [Example I-4]
GSK3B
  % change of MS signal compared to control sample: 0.7%
MLKL
  % change of MS signal compared to control sample: −9.4%
CK2a2
  % change of MS signal compared to control sample: −3.6%
IKKe, TBK1
  % change of MS signal compared to control sample: −38.7%
FES
  % change of MS signal compared to control sample: −15.6%
STLK5
  % change of MS signal compared to control sample: 2.0% and −4.4%
VRK2
  % change of MS signal compared to control sample: −30.6%
PKD2
  % change of MS signal compared to control sample: 12.9%
Erk2
  % change of MS signal compared to control sample: −3.2%
LCK
  % change of MS signal compared to control sample: 96.1%
Erk1
  % change of MS signal compared to control sample: −10.9%
RSK1 domain2
  % change of MS signal compared to control sample: 12.5%
PIP4K2C
  % change of MS signal compared to control sample: 71.0% and 43.0%
CaMK2d
  % change of MS signal compared to control sample: −8.5%
NEK2
  % change of MS signal compared to control sample: 22.3%
RSK2 domain2
  % change of MS signal compared to control sample: 13.8%
MAP3K1
  % change of MS signal compared to control sample: 18.4%
ROCK1
  % change of MS signal compared to control sample: 6.7%
ATR
  % change of MS signal compared to control sample: −66.1%
AMPKa1, AMPKa2
  % change of MS signal compared to control sample: −40.3%
CaMK1d
  % change of MS signal compared to control sample: −12.5% and −4.0%
PIK3CD
  % change of MS signal compared to control sample: −14.5%
PIK3CG
  % change of MS signal compared to control sample: −46.3%
NEK8
  % change of MS signal compared to control sample: 14.6%
MARK3
  % change of MS signal compared to control sample: 13.5%
FGR
  % change of MS signal compared to control sample: 87.0%
IKKe
  % change of MS signal compared to control sample: 2.2%
CSK
  % change of MS signal compared to control sample: 35.7%
RSK1, RSK2, RSK3 domain1
  % change of MS signal compared to control sample: −44.0%
ULK1
  % change of MS signal compared to control sample: 16.2%
BARK1
  % change of MS signal compared to control sample: −8.1%
MST4
  % change of MS signal compared to control sample: −13.2%
RSK3 domain1
  % change of MS signal compared to control sample: −26.9%
MST4, YSK1
  % change of MS signal compared to control sample: 20.5%
MLK3
  % change of MS signal compared to control sample: −27.2%
PIP5K3
  % change of MS signal compared to control sample: 14.5%
AurA, AurB, AurC
  % change of MS signal compared to control sample: 2.3%
GCN2
  % change of MS signal compared to control sample: −11.0% and −5.7%
Wnk1, Wnk2, Wnk4
  % change of MS signal compared to control sample: −0.5%
MAST3
  % change of MS signal compared to control sample: 2.0%
